Calls of active or inactive are those of the source. The rule behind the calls is not given here.
What was measured:
Type in all cases: cell-based
ND7/23 [1] = test: Inhibition of Voltage-dependent T-type calcium channel in mouse ND7/23 cells assessed as reduction in volatage induced T-type Ca2+ current density at 50 uM incubated for 5 mins by whole cell voltage-clamp assay
[2] = Inhibition of Voltage-dependent T-type calcium channel in mouse ND7/23 cells assessed as reduction in volatage induced T-type Ca2+ current density incubated for 5 mins by whole cell voltage-clamp assay; conditions: ND7/23, 5 min
[3] = target: Voltage-dependent T-type calcium channel subunit alpha-1H (Homo sapiens) (UniProt O95180); test: Inhibition of Cav3.2 (unknown origin) stably transfected in HEK293 cells assessed as reduction in volatage induced peak current at 10 uM incubated for 5 mins by whole cell voltage-clamp assay
[4] = target: Voltage-dependent T-type calcium channel subunit alpha-1H (Homo sapiens) (UniProt O95180); test: Inhibition of Cav3.2 (unknown origin) stably transfected in HEK293 cells assessed as increase in recovery time at 10 uM incubated for 5 mins by whole cell voltage-clamp assay (reference value: 514.5 +/- 37.8ms)
[5] = target: Voltage-dependent T-type calcium channel subunit alpha-1H (Homo sapiens) (UniProt O95180); test: Inhibition of Cav3.2 (unknown origin) stably transfected in HEK293 cells assessed as volatage induced T-type Ca2+ current at 1 to 50 uM incubated for 5 mins by whole cell voltage-clamp assay; conditions: dose 1-50 µM
[6] = target: Voltage-dependent T-type calcium channel subunit alpha-1H (Homo sapiens) (UniProt O95180); test: Inhibition of Cav3.2 (unknown origin) stably transfected in HEK293 cells assessed as V1/2 at 10 uM incubated for 5 mins by whole cell voltage-clamp assay (reference value: -64.8 +/- 1.3mV)
[7] = target: Voltage-dependent T-type calcium channel subunit alpha-1H (Homo sapiens) (UniProt O95180); test: Inhibition of Cav3.2 (unknown origin) stably transfected in HEK293 cells assessed as slope factor at 10 uM incubated for 5 mins by whole cell voltage-clamp assay (reference value: 5.2 +/- 0.2No_unit)
HEK293 = test: Inhibition of Cav3.2 (unknown origin) stably transfected in HEK293 cells assessed as reduction in volatage induced Ca2+ current density at 10 uM incubated for 5 mins by whole cell voltage-clamp assay; conditions: Homo sapiens
[8] = target: Voltage-dependent T-type calcium channel subunit alpha-1I (Homo sapiens) (UniProt Q9P0X4); test: Inhibition of Cav3.3 (unknown origin) stably transfected in HEK293 cells assessed as V1/2 at 10 uM incubated for 5 mins by whole cell voltage-clamp assay (reference value: -65.6 +/- 3.1mV)
[9] = target: Voltage-dependent T-type calcium channel subunit alpha-1I (Homo sapiens) (UniProt Q9P0X4); test: Inhibition of Cav3.3 (unknown origin) stably transfected in HEK293 cells assessed as reduction inactivation time constant transient current at 10 uM incubated for 5 mins by whole cell voltage-clamp assay
[10] = target: Voltage-dependent T-type calcium channel subunit alpha-1H (Homo sapiens) (UniProt O95180); test: Inhibition of Cav3.2 (unknown origin) stably transfected in HEK293 cells assessed as activation time constant transient current at 10 uM incubated for 5 mins by whole cell voltage-clamp assay
ND7/23 [11] = test: Inhibition of Voltage-dependent T-type calcium channel in mouse ND7/23 cells assessed as reduction in volatage induced T-type Ca2+ current density at 50 uM incubated for 5 mins followed by compound washout by whole cell voltage-clamp assay
[12] = target: Voltage-dependent T-type calcium channel subunit alpha-1I (Homo sapiens) (UniProt Q9P0X4); test: Inhibition of Cav3.3 (unknown origin) stably transfected in HEK293 cells assessed as slope factor at 10 uM incubated for 5 mins by whole cell voltage-clamp assay (reference value: 5.3 +/- 0.6mV)
[13] = target: Voltage-dependent T-type calcium channel subunit alpha-1I (Homo sapiens) (UniProt Q9P0X4); test: Inhibition of Cav3.3 (unknown origin) stably transfected in HEK293 cells assessed as activation time constant transient current at 10 uM incubated for 5 mins by whole cell voltage-clamp assay

Sequence of Voltage-dependent T-type calcium channel subunit alpha-1H (Homo sapiens) (O95180 whole entry): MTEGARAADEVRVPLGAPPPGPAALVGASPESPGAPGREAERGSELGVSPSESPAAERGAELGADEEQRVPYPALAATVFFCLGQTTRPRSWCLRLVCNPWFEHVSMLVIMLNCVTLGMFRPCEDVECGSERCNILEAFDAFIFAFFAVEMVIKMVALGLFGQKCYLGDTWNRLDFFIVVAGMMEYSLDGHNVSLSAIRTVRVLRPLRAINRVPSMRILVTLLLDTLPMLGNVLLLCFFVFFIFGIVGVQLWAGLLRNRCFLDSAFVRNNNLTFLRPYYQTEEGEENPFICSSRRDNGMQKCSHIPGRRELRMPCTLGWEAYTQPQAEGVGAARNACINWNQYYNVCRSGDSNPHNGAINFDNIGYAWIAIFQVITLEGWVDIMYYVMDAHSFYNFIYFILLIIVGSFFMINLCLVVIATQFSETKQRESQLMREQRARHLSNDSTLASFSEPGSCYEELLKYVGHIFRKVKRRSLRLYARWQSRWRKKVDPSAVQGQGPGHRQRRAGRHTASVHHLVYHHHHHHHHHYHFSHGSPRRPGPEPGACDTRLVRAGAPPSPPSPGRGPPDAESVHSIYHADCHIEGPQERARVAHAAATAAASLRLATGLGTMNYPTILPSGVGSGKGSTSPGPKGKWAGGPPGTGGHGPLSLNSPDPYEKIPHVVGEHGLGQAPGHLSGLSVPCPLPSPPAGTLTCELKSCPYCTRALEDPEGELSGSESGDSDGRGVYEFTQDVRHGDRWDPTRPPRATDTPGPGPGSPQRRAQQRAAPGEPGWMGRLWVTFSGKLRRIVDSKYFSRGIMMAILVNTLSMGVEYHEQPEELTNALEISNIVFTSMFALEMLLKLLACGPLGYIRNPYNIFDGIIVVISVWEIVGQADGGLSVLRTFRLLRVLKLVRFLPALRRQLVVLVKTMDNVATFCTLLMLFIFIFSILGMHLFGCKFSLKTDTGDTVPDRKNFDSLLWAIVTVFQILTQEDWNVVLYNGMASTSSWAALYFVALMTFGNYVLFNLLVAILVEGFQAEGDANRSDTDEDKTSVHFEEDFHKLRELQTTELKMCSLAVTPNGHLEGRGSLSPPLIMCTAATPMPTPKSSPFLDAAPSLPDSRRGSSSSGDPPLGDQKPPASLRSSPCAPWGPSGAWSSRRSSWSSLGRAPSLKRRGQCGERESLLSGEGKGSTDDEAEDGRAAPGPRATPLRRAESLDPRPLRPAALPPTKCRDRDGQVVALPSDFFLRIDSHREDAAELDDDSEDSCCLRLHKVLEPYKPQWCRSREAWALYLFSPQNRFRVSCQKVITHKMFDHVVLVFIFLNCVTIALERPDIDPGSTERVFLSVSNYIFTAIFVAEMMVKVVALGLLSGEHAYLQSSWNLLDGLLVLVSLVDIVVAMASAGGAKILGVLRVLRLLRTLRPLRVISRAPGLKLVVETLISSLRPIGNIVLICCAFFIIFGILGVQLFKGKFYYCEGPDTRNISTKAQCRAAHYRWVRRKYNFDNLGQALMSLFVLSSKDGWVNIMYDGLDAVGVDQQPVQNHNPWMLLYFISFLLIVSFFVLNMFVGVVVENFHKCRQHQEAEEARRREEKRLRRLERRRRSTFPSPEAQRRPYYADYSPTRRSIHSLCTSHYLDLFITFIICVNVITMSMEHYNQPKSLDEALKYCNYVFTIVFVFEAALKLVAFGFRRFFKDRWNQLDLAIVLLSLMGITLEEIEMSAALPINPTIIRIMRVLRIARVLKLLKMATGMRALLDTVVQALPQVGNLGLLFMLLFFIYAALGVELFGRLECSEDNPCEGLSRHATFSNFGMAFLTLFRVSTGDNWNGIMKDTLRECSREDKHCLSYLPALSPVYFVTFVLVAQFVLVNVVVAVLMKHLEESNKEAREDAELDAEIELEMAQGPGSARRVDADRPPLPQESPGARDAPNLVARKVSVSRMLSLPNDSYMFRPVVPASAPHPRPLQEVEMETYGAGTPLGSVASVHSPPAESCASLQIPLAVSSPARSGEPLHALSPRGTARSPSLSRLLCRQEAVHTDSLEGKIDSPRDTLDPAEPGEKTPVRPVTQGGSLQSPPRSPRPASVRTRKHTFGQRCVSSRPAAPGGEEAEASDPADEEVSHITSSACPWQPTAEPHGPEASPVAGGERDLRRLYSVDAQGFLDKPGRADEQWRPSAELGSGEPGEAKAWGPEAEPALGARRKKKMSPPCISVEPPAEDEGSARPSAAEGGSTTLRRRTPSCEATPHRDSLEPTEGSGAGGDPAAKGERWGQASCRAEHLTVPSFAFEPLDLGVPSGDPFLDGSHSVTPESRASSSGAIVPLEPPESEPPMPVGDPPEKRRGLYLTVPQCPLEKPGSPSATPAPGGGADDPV
Sequence of Voltage-dependent T-type calcium channel subunit alpha-1I (Homo sapiens) (Q9P0X4 whole entry): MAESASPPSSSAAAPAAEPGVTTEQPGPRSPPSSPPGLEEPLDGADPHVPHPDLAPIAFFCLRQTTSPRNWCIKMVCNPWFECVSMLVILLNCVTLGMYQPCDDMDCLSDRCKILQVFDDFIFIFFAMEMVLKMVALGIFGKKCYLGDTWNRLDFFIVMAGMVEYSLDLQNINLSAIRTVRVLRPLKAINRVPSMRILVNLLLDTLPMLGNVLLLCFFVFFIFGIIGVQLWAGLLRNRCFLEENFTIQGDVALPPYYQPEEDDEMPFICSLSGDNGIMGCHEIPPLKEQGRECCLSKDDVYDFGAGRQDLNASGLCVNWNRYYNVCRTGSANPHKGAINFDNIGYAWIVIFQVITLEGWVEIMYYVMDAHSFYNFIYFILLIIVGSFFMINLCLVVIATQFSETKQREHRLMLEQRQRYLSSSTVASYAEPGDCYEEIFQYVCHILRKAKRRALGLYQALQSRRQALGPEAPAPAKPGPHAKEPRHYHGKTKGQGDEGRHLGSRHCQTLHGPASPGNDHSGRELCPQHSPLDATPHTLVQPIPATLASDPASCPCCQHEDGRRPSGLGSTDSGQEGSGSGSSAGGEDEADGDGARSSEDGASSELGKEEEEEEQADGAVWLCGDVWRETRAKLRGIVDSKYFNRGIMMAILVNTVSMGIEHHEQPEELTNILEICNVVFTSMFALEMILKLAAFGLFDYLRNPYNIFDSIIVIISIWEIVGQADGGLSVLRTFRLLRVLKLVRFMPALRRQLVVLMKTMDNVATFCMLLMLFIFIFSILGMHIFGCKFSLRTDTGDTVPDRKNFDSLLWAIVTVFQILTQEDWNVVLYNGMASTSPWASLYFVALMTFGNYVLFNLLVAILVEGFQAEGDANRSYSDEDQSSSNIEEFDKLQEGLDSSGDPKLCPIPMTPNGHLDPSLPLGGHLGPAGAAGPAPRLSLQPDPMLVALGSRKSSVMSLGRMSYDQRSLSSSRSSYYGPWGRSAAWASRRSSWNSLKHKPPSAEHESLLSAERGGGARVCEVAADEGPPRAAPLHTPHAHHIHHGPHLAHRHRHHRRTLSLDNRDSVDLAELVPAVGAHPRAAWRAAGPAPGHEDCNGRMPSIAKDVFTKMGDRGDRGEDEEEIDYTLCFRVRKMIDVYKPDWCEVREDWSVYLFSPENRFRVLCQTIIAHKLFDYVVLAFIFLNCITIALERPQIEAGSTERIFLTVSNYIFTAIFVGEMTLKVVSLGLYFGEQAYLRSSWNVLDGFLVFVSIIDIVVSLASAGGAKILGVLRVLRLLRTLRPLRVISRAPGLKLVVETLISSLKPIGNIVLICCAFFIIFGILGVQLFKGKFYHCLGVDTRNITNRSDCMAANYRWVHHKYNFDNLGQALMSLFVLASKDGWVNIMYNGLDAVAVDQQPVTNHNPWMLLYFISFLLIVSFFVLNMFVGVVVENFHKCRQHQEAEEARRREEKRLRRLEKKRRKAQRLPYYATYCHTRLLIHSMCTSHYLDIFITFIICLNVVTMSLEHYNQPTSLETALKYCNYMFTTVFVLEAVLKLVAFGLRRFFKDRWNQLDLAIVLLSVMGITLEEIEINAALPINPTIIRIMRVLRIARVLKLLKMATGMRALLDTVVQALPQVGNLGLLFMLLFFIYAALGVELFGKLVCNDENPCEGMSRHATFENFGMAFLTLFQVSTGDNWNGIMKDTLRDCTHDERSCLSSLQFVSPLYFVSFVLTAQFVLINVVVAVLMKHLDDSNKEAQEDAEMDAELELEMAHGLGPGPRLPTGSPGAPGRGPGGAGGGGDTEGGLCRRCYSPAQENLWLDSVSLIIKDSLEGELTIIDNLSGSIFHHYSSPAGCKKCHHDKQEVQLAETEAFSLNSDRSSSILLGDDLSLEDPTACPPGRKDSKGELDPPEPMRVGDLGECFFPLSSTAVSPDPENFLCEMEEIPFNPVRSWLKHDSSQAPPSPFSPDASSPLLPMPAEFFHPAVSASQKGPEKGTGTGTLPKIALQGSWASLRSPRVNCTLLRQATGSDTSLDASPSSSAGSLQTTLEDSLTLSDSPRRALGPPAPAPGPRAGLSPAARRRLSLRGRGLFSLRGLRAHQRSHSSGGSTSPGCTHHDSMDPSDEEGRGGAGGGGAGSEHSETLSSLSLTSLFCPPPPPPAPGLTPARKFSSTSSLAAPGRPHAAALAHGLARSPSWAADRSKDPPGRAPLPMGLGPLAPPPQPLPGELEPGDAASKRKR

| IC50 [2] | inhibition [3] | TIME [4] | inhibition [5] | V1/2 [6] | Activity [7] | V1/2 [8] | inhibition [9] | inhibition [10] | Activity [12] | inhibition [13] | Compound | inhibition (ND7/23 [1]) | inhibition (HEK293) | inhibition (ND7/23 [11]) |
| --- | --- | --- | --- | --- | --- | --- | --- | --- | --- | --- | --- | --- | --- | --- |
| – | – | – | – | – | – | – | – | – | – | – | CC1CC(=O)C=C(NC(=O)c2ccccc2C(F)(F)F)C1 (stereo not given) | Active | – | – |
| – | – | – | – | – | – | – | – | – | – | – | CC1CC(=O)C=C(NC(=O)c2cccc(C(F)(F)F)c2)C1 (stereo not given) | Active | – | – |
| 18.9 µM | Active | 0.000267 h | Active | -70.2 mV | 6 | -58.5 mV | Active | Active | 5.3 | Active | CC1CC(=O)C=C(NC(=O)c2cc(C(F)(F)F)cc(C(F)(F)F)c2)C1 (stereo not given) | – | Active | Active |
